From PMC12472637, “Use of TLC and Computational Methods to Determine Lipophilicity Parameters of Selected Neuroleptics: Comparison of Experimental and Theoretical Studies” (Pharmaceuticals, 2025)

Experiments:
[1] = RP-TLC chromatographic parameter of lipophilicity (RMW), Soczewiński–Wachtmeister extrapolation; assay type: physicochemical; set-up: key: RM = log((1−Rf)/Rf), extrapolated via Soczewiński–Wachtmeister equation
Source text: As part of the continuation of this study, we attempted to use the experimental, i.e., chromatographic method to determine the lipophilicity parameter of five commercially available neuroleptics: fluphenazine, triflupromazine, trifluoperazine, flupentixol and zuclopenthixol. As described in the Materials and Methods Section, we successfully applied thin-layer chromatography in a reverse-phase system (RP-TLC) and various systems containing chromatographic plates: RP-2F254, RP-8F254 and RP-18F254. […] The chromatographic parameter of lipophilicity RMW obtained under these conditions, using Soczewiński-Wachtmeister's equation, is presented in Table 5. […] Sufficient linearity of these relationships was confirmed by a high correlation coefficient (r), significant p-values, a low standard error of estimate and a high Fisher F-distribution value. […] The content of organic modifier varied from 40% to 90% in 5% increments. Five microliters of each sample solution was spotted as separate spots with a 5 mm width. Plates were developed at ambient temperature (20 ± 2 °C) to a distance of 70 mm in a horizontal chamber ([…], Switzerland) and then visualized under UV light (λ = 254 nm). All measurements were performed in triplicate. The mean value of the retardation factor (Rf) of each compound was used to calculate the RM values:(1) […] The characteristic of the obtained linear plots are given in the Supplementary Materials as Tables S2-S6.

[2] = set-up: method as in earlier work; details: logP in n-octanol-water, DrugBank; cited from earlier work
[3] = RP-2F254 plates, 1,4-dioxane–TRIS buffer (pH 7.4)
[4] = RP-2F254 plates, acetone–TRIS buffer (pH 7.4)
[5] = RP-2F254 plates, acetonitrile–TRIS buffer (pH 7.4)
[6] = RP-8F254 plates, 1,4-dioxane–TRIS buffer (pH 7.4)
[7] = RP-8F254 plates, acetone–TRIS buffer (pH 7.4)
[8] = RP-8F254 plates, acetonitrile–TRIS buffer (pH 7.4)
[9] = RP-18F254 plates, 1,4-dioxane–TRIS buffer (pH 7.4)
[10] = RP-18F254 plates, acetone–TRIS buffer (pH 7.4)
[11] = RP-18F254 plates, acetonitrile–TRIS buffer (pH 7.4)

With `OCCN1CCN(CC/C=C2/c3ccccc3Sc3ccc(C(F)(F)F)cc32)CC1` [Flupentixol, flupentixol] the RMW [1, 3] was 2.782, the RMW ([1]; RP-2F254 plates, 1,4-dioxane–TRIS buffer (pH 7.4), listed as flupentixol) was 2.782±0.094 and the RMW [1, 4] was 2.829. The RMW ([1]; RP-2F254 plates, acetone–TRIS buffer (pH 7.4), listed as flupentixol) was 2.829±0.194, the RMW [1, 5] was −0.427 and the RMW ([1]; RP-2F254 plates, acetonitrile–TRIS buffer (pH 7.4), listed as flupentixol) was -0.427±0.153. For the same compound, the RMW [1, 6] was 2.363, the RMW ([1]; RP-8F254 plates, 1,4-dioxane–TRIS buffer (pH 7.4), listed as flupentixol) was 2.363±0.214 and the RMW [1, 7] was 2.702. The RMW ([1]; RP-8F254 plates, acetone–TRIS buffer (pH 7.4), listed as flupentixol) was 2.702±0.228, the RMW [1, 8] was −1.165 and the RMW ([1]; RP-8F254 plates, acetonitrile–TRIS buffer (pH 7.4), listed as flupentixol) was -1.165±0.108. For the same compound, the RMW [1, 9] was 2.468, the RMW ([1]; RP-18F254 plates, 1,4-dioxane–TRIS buffer (pH 7.4), listed as flupentixol) was 2.468±0.246 and the RMW [1, 10] was 2.762. For the same compound, the RMW ([1]; RP-18F254 plates, acetone–TRIS buffer (pH 7.4), listed as flupentixol) was 2.762±0.175, the RMW [1, 11] was −1.058 and the RMW ([1]; RP-18F254 plates, acetonitrile–TRIS buffer (pH 7.4), listed as flupentixol) was -1.058±0.077. The logPexp [2] was 4.51.

In the case of `OCCN1CCN(CCCN2c3ccccc3Sc3ccc(C(F)(F)F)cc32)CC1` [Fluphenazine, fluphenazine], the RMW [1, 3] is reported as 2.653, the RMW ([1]; RP-2F254 plates, 1,4-dioxane–TRIS buffer (pH 7.4), listed as fluphenazine) is reported as 2.653±0.058 and the RMW [1, 4] is reported as 2.834. For the same compound, the RMW ([1]; RP-2F254 plates, acetone–TRIS buffer (pH 7.4), listed as fluphenazine) was 2.834±0.219, the RMW [1, 5] was −0.777 and the RMW ([1]; RP-2F254 plates, acetonitrile–TRIS buffer (pH 7.4), listed as fluphenazine) was -0.777±0.074. For the same compound, the RMW [1, 6] was 2.340, the RMW ([1]; RP-8F254 plates, 1,4-dioxane–TRIS buffer (pH 7.4), listed as fluphenazine) was 2.340±0.230 and the RMW [1, 7] was 2.591. It also gave an RMW ([1]; RP-8F254 plates, acetone–TRIS buffer (pH 7.4), listed as fluphenazine) of 2.591±0.210, an RMW [1, 8] of −1.230 and an RMW ([1]; RP-8F254 plates, acetonitrile–TRIS buffer (pH 7.4), listed as fluphenazine) of -1.230±0.164. For the same compound, the RMW [1, 9] was 2.454, the RMW ([1]; RP-18F254 plates, 1,4-dioxane–TRIS buffer (pH 7.4), listed as fluphenazine) was 2.454±0.279 and the RMW [1, 10] was 2.702. For the same compound, the RMW ([1]; RP-18F254 plates, acetone–TRIS buffer (pH 7.4), listed as fluphenazine) was 2.702±0.189, the RMW [1, 11] was −0.995 and the RMW ([1]; RP-18F254 plates, acetonitrile–TRIS buffer (pH 7.4), listed as fluphenazine) was -0.995±0.098. For the same compound, the logPexp [2] was 4.36.

For `CN1CCN(CCCN2c3ccccc3Sc3ccc(C(F)(F)F)cc32)CC1` [Trifluoperazine, trifluoperazine], the RMW [1, 3] was 3.333, the RMW ([1]; RP-2F254 plates, 1,4-dioxane–TRIS buffer (pH 7.4), listed as trifluoperazine) was 3.333±0.328 and the RMW [1, 4] was 3.348. It also gave an RMW ([1]; RP-2F254 plates, acetone–TRIS buffer (pH 7.4), listed as trifluoperazine) of 3.348±0.250, an RMW [1, 5] of −0.568 and an RMW ([1]; RP-2F254 plates, acetonitrile–TRIS buffer (pH 7.4), listed as trifluoperazine) of -0.568±0.088. It also gave an RMW [1, 6] of 2.547, an RMW ([1]; RP-8F254 plates, 1,4-dioxane–TRIS buffer (pH 7.4), listed as trifluoperazine) of 2.547±0.277 and an RMW [1, 7] of 2.754. The RMW ([1]; RP-8F254 plates, acetone–TRIS buffer (pH 7.4), listed as trifluoperazine) was 2.754±0.209, the RMW [1, 8] was −1.023 and the RMW ([1]; RP-8F254 plates, acetonitrile–TRIS buffer (pH 7.4), listed as trifluoperazine) was -1.023±0.082. For the same compound, the RMW [1, 9] was 2.580, the RMW ([1]; RP-18F254 plates, 1,4-dioxane–TRIS buffer (pH 7.4), listed as trifluoperazine) was 2.580±0.271 and the RMW [1, 10] was 2.714. The RMW ([1]; RP-18F254 plates, acetone–TRIS buffer (pH 7.4), listed as trifluoperazine) was 2.714±0.200, the RMW [1, 11] was −0.810 and the RMW ([1]; RP-18F254 plates, acetonitrile–TRIS buffer (pH 7.4), listed as trifluoperazine) was -0.810±0.074. For the same compound, the logPexp [2] was 5.03.

For `CN(C)CCCN1c2ccccc2Sc2ccc(C(F)(F)F)cc21` [Triflupromazine, triflupromazine], the RMW [1, 3] was 2.890, the RMW ([1]; RP-2F254 plates, 1,4-dioxane–TRIS buffer (pH 7.4), listed as triflupromazine) was 2.890±0.232 and the RMW [1, 4] was 3.046. It also gave an RMW ([1]; RP-2F254 plates, acetone–TRIS buffer (pH 7.4), listed as triflupromazine) of 3.046±0.271, an RMW [1, 5] of −0.405 and an RMW ([1]; RP-2F254 plates, acetonitrile–TRIS buffer (pH 7.4), listed as triflupromazine) of -0.405±0.166. It also gave an RMW [1, 6] of 2.153, an RMW ([1]; RP-8F254 plates, 1,4-dioxane–TRIS buffer (pH 7.4), listed as triflupromazine) of 2.153±0.213 and an RMW [1, 7] of 2.690. The RMW ([1]; RP-8F254 plates, acetone–TRIS buffer (pH 7.4), listed as triflupromazine) was 2.690±0.232, the RMW [1, 8] was −0.334 and the RMW ([1]; RP-8F254 plates, acetonitrile–TRIS buffer (pH 7.4), listed as triflupromazine) was -0.334±0.019. The RMW [1, 9] was 2.342, the RMW ([1]; RP-18F254 plates, 1,4-dioxane–TRIS buffer (pH 7.4), listed as triflupromazine) was 2.342±0.261 and the RMW [1, 10] was 2.718. It also gave an RMW ([1]; RP-18F254 plates, acetone–TRIS buffer (pH 7.4), listed as triflupromazine) of 2.718±0.168, an RMW [1, 11] of −0.361 and an RMW ([1]; RP-18F254 plates, acetonitrile–TRIS buffer (pH 7.4), listed as triflupromazine) of -0.361±0.084.

Compound `OCCN1CCN(CC/C=C2/c3ccccc3Sc3ccc(Cl)cc32)CC1` [Zuclopenthixol, zuclopenthixol] has an RMW [1, 3] of 2.459, an RMW ([1]; RP-2F254 plates, 1,4-dioxane–TRIS buffer (pH 7.4), listed as zuclopenthixol) of 2.459±0.130 and an RMW [1, 4] of 2.529. The RMW ([1]; RP-2F254 plates, acetone–TRIS buffer (pH 7.4), listed as zuclopenthixol) was 2.529±0.252, the RMW [1, 5] was 0.582±0.089 and the RMW [1, 6] was 1.981. It also gave an RMW ([1]; RP-8F254 plates, 1,4-dioxane–TRIS buffer (pH 7.4), listed as zuclopenthixol) of 1.981±0.189, an RMW [1, 7] of 2.206 and an RMW ([1]; RP-8F254 plates, acetone–TRIS buffer (pH 7.4), listed as zuclopenthixol) of 2.206±0.207. It also gave an RMW [1, 8] of −1.206, an RMW ([1]; RP-8F254 plates, acetonitrile–TRIS buffer (pH 7.4), listed as zuclopenthixol) of -1.206±0.139 and an RMW [1, 9] of 2.110. The RMW ([1]; RP-18F254 plates, 1,4-dioxane–TRIS buffer (pH 7.4), listed as zuclopenthixol) was 2.110±0.176, the RMW [1, 10] was 2.218 and the RMW ([1]; RP-18F254 plates, acetone–TRIS buffer (pH 7.4), listed as zuclopenthixol) was 2.218±0.238. For the same compound, the RMW [1, 11] was 2.411 and the RMW ([1]; RP-18F254 plates, acetonitrile–TRIS buffer (pH 7.4), listed as zuclopenthixol) was 2.411±0.454.
